Some test systems named below: HOP-62 NSCLC; MOLT-4 leukemia; SK-MEL-28 melanoma; CAKI-1 renal; LOX IMVI melanoma; NCI-H23 lung; OVCAR-8 ovarian; HOP-92 NSCLC; SNB-75 CNS; SK-MEL-5 melanoma.
What all share (experiment): NCI tumour cell line growth inhibition, 48 h

From PubChem BioAssay (NCI) come the findings set out here.

Each structure is given as a SMILES string. Values joined by “and” are separate entries in the source; they are usually repeats but may differ in a detail not shown here. Identical values can stand only once.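 The compound was tested at five concentrations on cells cultured in 96-well plates, with a 48-hour exposure period. GI50 = concentration required for 50% inhibition of growth. At the TGI there is no net growth.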 Bounds are passed on as bounds.

As for `O=C(CCCNC(=O)OCc1ccccc1)OCc1ccc2c(c1)C(=O)c1ccccc1C2=O`, the TGI with HOP-62 NSCLC is more than 93.4 µM; in the experiment on MOLT-4 leukemia it was more than 100 µM; with SK-MEL-28 melanoma it was more than 100 µM; in the experiment on CAKI-1 renal it was more than 89.6 µM; with LOX IMVI melanoma it was more than 100 µM; with NCI-H23 lung, more than 100 µM. For the same compound, the TGI in the experiment with OVCAR-8 ovarian is more than 56.2 µM; in the experiment with HOP-92 NSCLC, more than 91.3 µM; in the experiment on SNB-75 CNS it was 40.3 µM; in the experiment on SK-MEL-5 melanoma, more than 100 µM.
On to `O=C1C=CN(C2OC(CO)C(O)C2O)C(=O)C1` (stereo unspecified), for which the GI50 in the experiment with HOP-62 NSCLC is 18.7 µM; in the experiment with SK-MEL-28 melanoma, > 625 µM and 252 µM; in the experiment on CAKI-1 renal, 17.3 µM; with NCI-H23 lung it was > 625 µM and 356 µM; in the experiment with OVCAR-8 ovarian it was 72.6 µM and 42.7 µM; in the experiment with HOP-92 NSCLC, 13.6 µM and 66.2 µM. Also, the GI50 in the experiment on SK-MEL-5 melanoma is > 625 µM and 325 µM. For the same compound, the TGI in the experiment with HOP-62 NSCLC was 625 µM and 1340 µM; in the experiment on MOLT-4 leukemia it was 476 µM; in the experiment with SK-MEL-28 melanoma it was more than 2500 µM; with CAKI-1 renal, 296 µM and 1010 µM; with LOX IMVI melanoma it was 625 µM and 788 µM; with NCI-H23 lung, more than 2500 µM. In addition, the TGI is 625 µM and > 2500 µM with OVCAR-8 ovarian; more than 2500 µM in the experiment on SNB-75 CNS; more than 2500 µM in the experiment on SK-MEL-5 melanoma.
`Cc1[nH]c(=O)nc(CC(O)(c2ccccc2)c2ccccc2)c1-c1ccccc1`: the TGI with HOP-62 NSCLC, with MOLT-4 leukemia, in the experiment with SK-MEL-28 melanoma, in the experiment on CAKI-1 renal, in the experiment with LOX IMVI melanoma and with NCI-H23 lung was more than 100 µM in each case. The TGI in the experiment with OVCAR-8 ovarian, in the experiment with HOP-92 NSCLC, with SNB-75 CNS and with SK-MEL-5 melanoma was more than 100 µM in each case.
With `COc1ccc(CCNCc2cccc(OC)c2OC)cc1OC`, the TGI with HOP-62 NSCLC, in the experiment on MOLT-4 leukemia, in the experiment with SK-MEL-28 melanoma, with CAKI-1 renal, in the experiment with LOX IMVI melanoma and in the experiment with NCI-H23 lung was more than 100 µM in each case. Further, the TGI in the experiment on OVCAR-8 ovarian, with HOP-92 NSCLC, with SNB-75 CNS and with SK-MEL-5 melanoma was more than 100 µM throughout.
In the case of `CCOC(=O)c1c(C)n(CC(C)C)c2c1cc1oc(=O)c(=O)n3cnc2c13`, the GI50 with HOP-62 NSCLC was 35 µM; in the experiment on MOLT-4 leukemia, 15.8 µM; with SK-MEL-28 melanoma, 23.6 µM; with CAKI-1 renal it was 11.4 µM; with LOX IMVI melanoma, 8.45 µM; with NCI-H23 lung, 12.3 µM. Moreover, the GI50 in the experiment on OVCAR-8 ovarian was 12.5 µM; in the experiment with HOP-92 NSCLC, 14.5 µM; in the experiment on SNB-75 CNS, 12.5 µM; in the experiment on SK-MEL-5 melanoma it was 10.1 µM. Moreover, the TGI was more than 50 µM in the experiment with HOP-62 NSCLC; more than 50 µM in the experiment on MOLT-4 leukemia; more than 50 µM in the experiment with SK-MEL-28 melanoma; 29.2 µM with CAKI-1 renal; 16 µM in the experiment with LOX IMVI melanoma; 31 µM with NCI-H23 lung. Moreover, the TGI is 36.7 µM in the experiment with OVCAR-8 ovarian, 43.4 µM with HOP-92 NSCLC, more than 50 µM with SNB-75 CNS and 19.8 µM with SK-MEL-5 melanoma.
Turning to `Cc1[nH]nc2c1N=C(c1ccccc1F)c1cc(C#N)ccc1N2`, the GI50 in the experiment with HOP-62 NSCLC was 0.899 µM; in the experiment on MOLT-4 leukemia, 6.25 µM; in the experiment with SK-MEL-28 melanoma, 6.5 µM; with CAKI-1 renal it was 0.051 µM; in the experiment on LOX IMVI melanoma, 0.285 µM; in the experiment on NCI-H23 lung it was 3.74 µM. Moreover, the GI50 was 3.38 µM in the experiment with OVCAR-8 ovarian, 0.672 µM in the experiment on HOP-92 NSCLC, 0.036 µM with SNB-75 CNS and 0.0971 µM with SK-MEL-5 melanoma. The TGI with HOP-62 NSCLC was 8.85 µM; in the experiment with MOLT-4 leukemia, more than 25 µM; in the experiment on SK-MEL-28 melanoma, more than 23.5 µM; with CAKI-1 renal, 5.66 µM; in the experiment on LOX IMVI melanoma, 16.3 µM; with NCI-H23 lung, 14.2 µM. For the same compound, the TGI in the experiment with OVCAR-8 ovarian is 12.3 µM; in the experiment on HOP-92 NSCLC it was 8.87 µM; in the experiment with SNB-75 CNS, 0.717 µM; in the experiment with SK-MEL-5 melanoma, 9.39 µM.
For `Cc1ccc(C2SCc3nc4ccc(C(=O)c5ccccc5)cc4n32)cc1` (stereo unspecified), the GI50 in the experiment with HOP-62 NSCLC is 14.8 µM; with MOLT-4 leukemia, 14.8 µM; in the experiment with SK-MEL-28 melanoma it was 17.7 µM; in the experiment with CAKI-1 renal, 0.457 µM; in the experiment on LOX IMVI melanoma, more than 36.7 µM; with NCI-H23 lung, 14.4 µM. Further, the GI50 in the experiment on OVCAR-8 ovarian was 15.4 µM; with HOP-92 NSCLC, 11.7 µM; in the experiment with SNB-75 CNS it was 23.3 µM; in the experiment with SK-MEL-5 melanoma, 1.33 µM. The TGI was 39.6 µM with HOP-62 NSCLC; more than 100 µM in the experiment with MOLT-4 leukemia; more than 100 µM with SK-MEL-28 melanoma; 4.26 µM in the experiment on CAKI-1 renal; more than 100 µM with LOX IMVI melanoma; more than 62 µM in the experiment on NCI-H23 lung. The TGI in the experiment with OVCAR-8 ovarian was 62.6 µM; with HOP-92 NSCLC, 38.8 µM; in the experiment on SNB-75 CNS, more than 70 µM; with SK-MEL-5 melanoma, 7.48 µM.
Regarding `CCCCCC(=O)OCC(=O)O[C@@H]1C[C@]2(C(C)C)O[C@@]1(C)[C@@H]1CC[C@@H](C)[C@H]1[C@@H]2OC(=O)/C=C/c1ccccc1`, the GI50 in the experiment with HOP-62 NSCLC is more than 74.6 µM; in the experiment with MOLT-4 leukemia, more than 45.5 µM; in the experiment with SK-MEL-28 melanoma, more than 56.6 µM; in the experiment with CAKI-1 renal it was 0.0329 µM; in the experiment with LOX IMVI melanoma it was more than 49.9 µM; in the experiment on NCI-H23 lung, more than 52.8 µM. The GI50 with OVCAR-8 ovarian is 0.0907 µM; with HOP-92 NSCLC it was 12.8 µM; in the experiment with SNB-75 CNS, 42.4 µM; in the experiment on SK-MEL-5 melanoma it was 42.5 µM. In addition, the TGI with HOP-62 NSCLC is more than 100 µM; with MOLT-4 leukemia, more than 100 µM; in the experiment with SK-MEL-28 melanoma, more than 83 µM; with CAKI-1 renal, 0.221 µM; in the experiment with LOX IMVI melanoma, more than 72.6 µM; with NCI-H23 lung, more than 75.7 µM. Besides, the TGI in the experiment on OVCAR-8 ovarian was more than 79.2 µM; in the experiment on HOP-92 NSCLC, more than 74.5 µM; in the experiment with SNB-75 CNS it was more than 87.6 µM; in the experiment with SK-MEL-5 melanoma it was more than 77.4 µM.
Turning to `O=C(/C=C/c1c(O)ccc2ccccc12)c1cccc2ccccc12`, the TGI with HOP-62 NSCLC, in the experiment on MOLT-4 leukemia, in the experiment with SK-MEL-28 melanoma, in the experiment with CAKI-1 renal, in the experiment with LOX IMVI melanoma and in the experiment with NCI-H23 lung was more than 100 µM throughout. For the same compound, the TGI with OVCAR-8 ovarian, in the experiment with HOP-92 NSCLC, in the experiment on SNB-75 CNS and with SK-MEL-5 melanoma was more than 100 µM each time.
In the case of `CCCCN(CCCC)CC(C)(C)C(O)c1ccc(OC)c2ccccc12` (stereo unspecified), the GI50 with HOP-62 NSCLC is 6.5 µM; in the experiment on MOLT-4 leukemia it was 2.68 µM; with SK-MEL-28 melanoma, 11.3 µM; in the experiment on CAKI-1 renal, 3.06 µM; in the experiment on LOX IMVI melanoma, 5.53 µM; in the experiment on NCI-H23 lung, 2.29 µM. Further, the GI50 in the experiment on OVCAR-8 ovarian is 9.76 µM; in the experiment with HOP-92 NSCLC, 3.11 µM; in the experiment on SNB-75 CNS, 6.31 µM; in the experiment on SK-MEL-5 melanoma, 2 µM. Also, the TGI in the experiment on HOP-62 NSCLC is 20.6 µM; in the experiment with MOLT-4 leukemia it was 11.7 µM; with SK-MEL-28 melanoma, 24.8 µM; with CAKI-1 renal it was 16 µM; with LOX IMVI melanoma, 19.4 µM; in the experiment with NCI-H23 lung it was 9.36 µM. The TGI in the experiment on OVCAR-8 ovarian came out at 28.8 µM; in the experiment on HOP-92 NSCLC, 8.81 µM; in the experiment on SNB-75 CNS it was 30.3 µM; with SK-MEL-5 melanoma, 4.95 µM.
For `Cc1ccc2[nH]c(C(=O)NN3C(=O)CSC34CCCC(C)C4)c(-c3ccccc3)c2c1` (stereo unspecified), the GI50 in the experiment with HOP-62 NSCLC was 19.2 µM; with MOLT-4 leukemia, 8.77 µM; with SK-MEL-28 melanoma, 19.7 µM; in the experiment on CAKI-1 renal it was 15.5 µM; in the experiment with LOX IMVI melanoma, 19.8 µM; in the experiment on NCI-H23 lung, 20 µM. The GI50 in the experiment on OVCAR-8 ovarian was 15.6 µM; with HOP-92 NSCLC, 13.1 µM; in the experiment on SNB-75 CNS, 17.1 µM; in the experiment with SK-MEL-5 melanoma it was 17.4 µM. The TGI in the experiment with HOP-62 NSCLC was determined as 35.1 µM; with MOLT-4 leukemia, 31.9 µM; with SK-MEL-28 melanoma it was 37.6 µM; in the experiment with CAKI-1 renal, 33.8 µM; in the experiment on LOX IMVI melanoma, 37.1 µM; with NCI-H23 lung it was 36 µM. Besides, the TGI with OVCAR-8 ovarian was determined as 32.9 µM; in the experiment with HOP-92 NSCLC, 28.3 µM; in the experiment with SNB-75 CNS, 34.6 µM; in the experiment with SK-MEL-5 melanoma, 34.9 µM.
Take `OCC(O)COc1c(Cl)ccc(Cl)c1Cl` (stereo unspecified): the TGI in the experiment on HOP-62 NSCLC, with MOLT-4 leukemia, in the experiment on SK-MEL-28 melanoma, with CAKI-1 renal, with LOX IMVI melanoma and in the experiment on NCI-H23 lung was more than 100 µM each time. For the same compound, the TGI in the experiment on OVCAR-8 ovarian, in the experiment on HOP-92 NSCLC, in the experiment on SNB-75 CNS and in the experiment with SK-MEL-5 melanoma was more than 100 µM in each case.
With `CC1CCC2C(C)C3C(CC4C5CC=C6CC(OC7OC(CO)C(O)C(OC8OC(CO)C(O)C(O)C8O)C7OC7OC(C)C(O)C(O)C7O)CCC6(C)C5CCC43C)N2C1` (stereo unspecified), the GI50 with HOP-62 NSCLC, in the experiment with MOLT-4 leukemia, in the experiment with SK-MEL-28 melanoma, with CAKI-1 renal, in the experiment on LOX IMVI melanoma and with NCI-H23 lung was more than 2.5 µg/mL in each case. In addition, the GI50 in the experiment on OVCAR-8 ovarian, with HOP-92 NSCLC, in the experiment on SNB-75 CNS and in the experiment with SK-MEL-5 melanoma was more than 2.5 µg/mL in each case. For the same compound, the TGI in the experiment on HOP-62 NSCLC is 32.2 µM and > 2.5 µg/mL; with MOLT-4 leukemia, 60.9 µM and > 2.5 µg/mL; in the experiment with SK-MEL-28 melanoma, 21.8 µM and > 2.5 µg/mL; in the experiment with CAKI-1 renal, 25.1 µM and > 2.5 µg/mL; with LOX IMVI melanoma, 29.7 µM and > 2.5 µg/mL; in the experiment with NCI-H23 lung it was 29.8 µM and > 2.5 µg/mL. Besides, the TGI in the experiment with OVCAR-8 ovarian is 29.8 µM and > 2.5 µg/mL; in the experiment with HOP-92 NSCLC, 33.6 µM and > 2.5 µg/mL; in the experiment with SNB-75 CNS, 24.7 µM and > 2.5 µg/mL; in the experiment on SK-MEL-5 melanoma it was 33.3 µM and > 2.5 µg/mL.
